Measured values from patent US9169241B2, “Quinolinyloxyphenylsulfonamides” (Max-Planck-Gesellschaft Zur Forderung der Wissenschaften …, priority 2009, dated 2015).
Where a name gives a salt, the structure may show the parent alone. Read-outs that look alike come from different tables or passages of the source.

Columns and labels:
viable cells in culture = assay: Cell viability assay at 10 μM (CellTiter-Glo, Table VII); assay type: cell-based; conditions: compound 10 μM, 72 h;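 note: graded A 0-20%; B 21-40%; C 41-60%; D over 60% viable cells relative to DMSO control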
Description: The CellTiter-Glo® Luminescent Cell Viability Assay (Promega Corporation. Madison, Wis., USA) is method a determining the number of viable cells in culture based on quantification of the ATP being present which is an indicator of metabolically active cells was used according to manufacturers protocol. In detail the assay was performed in a 96 well format were 1000 cells/well were incubated with compound at concentration 10 μM as well as DMSO control for 72 h in 100 μl cell culture medium. Percentage of inhibition was calculated compared to ATP amount of DMSO control.

Structure (SMILES) | melting point [°C] | other results
COc1cc2c(Oc3ccc(NS(=O)(=O)c4cc(F)ccc4F)cc3F)ccnc2cc1OCCCN (as salt: hydrochloride) [Example 122, N-{4-[7-(3-Amino-propoxy)-6-methoxy-quinolin-4-yloxy]-3-fluoro-phenyl}-2,5-difluoro-benzenesulfonamide hydrochloride] | 188 to 190 | 
COc1cc2c(Oc3ccc(NS(=O)(=O)c4ccccc4F)cc3F)ccnc2cc1OCCCN1CCCCC1 [Example 2, 2-Fluoro-N-{3-fluoro-4-[6-methoxy-7-(3-piperidin-1-yl-propoxy)-quinolin-4-yloxy]-phenyl}-benzenesulfonamide] | 214 to 216 | 
COc1cc2c(Oc3ccc(NS(=O)(=O)c4ccc(Cl)cc4F)cc3F)ccnc2cc1OCCCN1CCCCC1 [Example 3, 4-Chloro-2-fluoro-N-{3-fluoro-4-[6-methoxy-7-(3-piperidin-1-yl-propoxy)-quinolin-4-yloxy]-phenyl}-benzenesulfonamide] | 122 to 124 | viability at 10 µM (viable cells in culture; Homo sapiens, HCT-116, HCT116 def, read-out: percentage (%) of viable cells HCT 116def): 0 to 20%; viability at 10 µM (viable cells in culture; Homo sapiens, HCT-116, HCT116 wt, read-out: percentage (%) of viable cells HCT 116wt): 0 to 20%; viability at 10 µM (viable cells in culture; Homo sapiens, HT-29, HT29, read-out: percentage (%) of viable cells HT29): 0 to 20%; viability at 10 µM (viable cells in culture; Homo sapiens, NCI-H358, H358, read-out: percentage (%) of viable cells H358): 0 to 20%; viability at 10 µM (viable cells in culture; Homo sapiens, NCI-H1650, H1650, read-out: percentage (%) of viable cells H1650): 41 to 60%; viability at 10 µM (viable cells in culture; Homo sapiens, NCI-H1666, H1666, read-out: percentage (%) of viable cells H1666): 41 to 60%; viability at 10 µM (viable cells in culture; Homo sapiens, NCI-H1975, H1975, read-out: percentage (%) of viable cells H1975): 21 to 40%; viability at 10 µM (viable cells in culture; Homo sapiens, NCI-H1993, H1993, read-out: percentage (%) of viable cells H1993): 21 to 40%; viability at 10 µM (viable cells in culture; Homo sapiens, A549, read-out: percentage (%) of viable cells A549): 21 to 40%; viability at 10 µM (viable cells in culture; Homo sapiens, HCC827, read-out: percentage (%) of viable cells HCC827): > 60%; viability at 10 µM (viable cells in culture; Homo sapiens, SW480, read-out: percentage (%) of viable cells SW480): 0 to 20%; viability at 10 µM (viable cells in culture; RKO, read-out: percentage (%) of viable cells RKO): 0 to 20%
COc1cc2c(Oc3ccc(NS(=O)(=O)c4cccc(OC(F)F)c4)cc3F)ccnc2cc1OCCCN1CCN(C)CC1 [Example 30, 3-Difluoromethoxy-N-(3-fluoro-4-{6-methoxy-7-[3-(4-methyl-piperazin-1-yl)-propoxy]-quinolin-4-yloxy}-phenyl)-benzenesulfonamide] | 95 to 97 | 
COc1cc2c(Oc3ccc(NS(=O)(=O)c4cccs4)cc3F)ccnc2cc1OCCCN1CCN(C)CC1 [Example 31, Thiophene-2-sulfonic acid (3-fluoro-4-{6-methoxy-7-[3-(4-methyl-piperazin-1-yl)-propoxy]-quinolin-4-yloxy}-phenyl)-amide] | 201 to 202 | 
COc1cc2c(Oc3ccc(NS(=O)(=O)c4cccc(C(F)(F)F)c4)cc3F)ccnc2cc1OCCCN1CCCC(C)C1 (centres unmarked) [Example 39, ′N-(3-Fluoro-4-{6-methoxy-7-[3-(3-methyl-piperidin-1-yl)-propoxy]-quinolin-4-yloxy}-phenyl)-3-trifluoromethyl-benzenesulfonamide] | 128 to 130 | 
COc1cccc(S(=O)(=O)Nc2ccc(Oc3ccnc4cc(OCCCN5CCCC(C)C5)c(OC)cc34)c(F)c2)c1 (centres unmarked) [Example 42, N-(3-Fluoro-4-{6-methoxy-7-[3-(3-methyl-piperidin-1-yl)-propoxy]-quinolin-4-yloxy}-phenyl)-3-methoxy-benzenesulfonamide] | 172 to 174 | 
COc1cc2c(Oc3ccc(NS(=O)(=O)C4CC4)cc3F)ccnc2cc1OCCCN1CCCC(C)C1 (centres unmarked) [Example 60, Cyclopropanesulfonic acid (3-fluoro-4-{6-methoxy-7-[3-(3-methyl-piperidin-1-yl)-propoxy]-quinolin-4-yloxy}-phenyl)-amide] | 158 to 160 | 
COc1cc2c(Oc3ccc(NS(=O)(=O)c4ccn(C)n4)cc3F)ccnc2cc1OCCCN1CCCC(C)C1 (centres unmarked) [Example 61, 1-Methyl-1H-pyrazole-3-sulfonic acid (3-fluoro-4-{6-methoxy-7-[3-(3-methyl-piperidin-1-yl)-propoxy]-quinolin-4-yloxy}-phenyl)-amide] | 164 to 166 | 
CCn1cc(S(=O)(=O)Nc2ccc(Oc3ccnc4cc(OCCCN5CCCC(C)C5)c(OC)cc34)c(F)c2)cn1 (centres unmarked) [Example 68, 1-Ethyl-1H-pyrazole-4-sulfonic acid (3-fluoro-4-{6-methoxy-7-[3-(3-methyl-piperidin-1-yl)-propoxy]-quinolin-4-yloxy}-phenyl)-amide] | 152 to 154 | 
COc1cc2c(Oc3ccc(NS(=O)(=O)c4cccc(Cl)c4)cc3F)ccnc2cc1OCCCN1CCCC(C)C1 (centres unmarked) [Example 69, 3-Chloro-N-(3-fluoro-4-{6-methoxy-7-[3-(3-methyl-piperidin-1-yl)-propoxy]-quinolin-4-yloxy}-phenyl)-benzenesulfonamide] | 110 to 112 | 
COc1cc2c(Oc3ccc(NS(=O)(=O)c4ccccc4OC)cc3F)ccnc2cc1OCCCN1CCCC(C)C1 (centres unmarked) [Example 71, N-(3-Fluoro-4-{6-methoxy-7-[3-(3-methyl-piperidin-1-yl)-propoxy]-quinolin-4-yloxy}-phenyl)-2-methoxy-benzenesulfonamide] | 175 to 176 | 
COc1cc2c(Oc3ccc(NS(=O)(=O)/C=C/c4ccccc4)cc3F)ccnc2cc1OCCCN1CCCC(C)C1 (centres unmarked) [Example 73, 2-Phenyl-ethenesulfonic acid (3-fluoro-4-{6-methoxy-7-[3-(3-methyl-piperidin-1-yl)-propoxy]-quinolin-4-yloxy}-phenyl)-amide] | 104 to 106 | 
COc1cc2c(Oc3ccc(NS(=O)(=O)c4cccc5cccnc45)cc3F)ccnc2cc1OCCCN1CCCC(C)C1 (centres unmarked) [Example 74, Quinoline-8-sulfonic acid (3-fluoro-4-{6-methoxy-7-[3-(3-methyl-piperidin-1-yl)-propoxy]-quinolin-4-yloxy}-phenyl)-amide] | 190 to 191 | 
CCCCS(=O)(=O)Nc1ccc(Oc2ccnc3cc(OCCCN4CCOCC4)c(OC)cc23)c(F)c1 [Example 79, Butane-1-sulfonic acid {3-fluoro-4-[6-methoxy-7-(3-morpholin-4-yl-propoxy)-quinolin-4-yloxy]-phenyl}-amide] | 98 to 100 | 
COc1cc2c(Oc3ccc(NS(=O)(=O)c4ccccc4C(F)(F)F)cc3F)ccnc2cc1OCCCNC(=O)NC(C)(C)C [Example 98, N-(4-{7-[3-(3-tert-Butyl-ureido)-propoxy]-6-methoxy-quinolin-4-yloxy}-3-fluoro-phenyl)-2-trifluoromethyl-benzenesulfonamide] | 106 to 108 | 
COc1cc2c(Oc3ccc(NS(=O)(=O)c4ccccc4OC)cc3F)ccnc2cc1OCCN1CCOCC1 [Example 103, N-{3-Fluoro-4-[6-methoxy-7-(2-morpholin-4-yl-ethoxy)-quinolin-4-yloxy]-phenyl}-2-methoxy-benzenesulfonamide] | 182 to 183 | 
COc1cc2c(Oc3ccc(NS(=O)(=O)c4cccs4)cc3F)ccnc2cc1OCCN1CCOCC1 [Example 105, Thiophene-2-sulfonic acid {3-fluoro-4-[6-methoxy-7-(2-morpholin-4-yl-ethoxy)-quinolin-4-yloxy]-phenyl}-amide] | 146 to 147 | 
COc1cc2c(Oc3ccc(NS(=O)(=O)c4ccn(C)n4)cc3F)ccnc2cc1OCCN1CCOCC1 [Example 107, 1-Methyl-1H-pyrazole-3-sulfonic acid {3-fluoro-4-[6-methoxy-7-(2-morpholin-4-yl-ethoxy)-quinolin-4-yloxy]-phenyl}-amide] | 213 to 214 | 
COc1cc2c(Oc3cccc(NS(=O)(=O)c4cc(F)ccc4F)c3)ccnc2cc1OCCCN1CCN(C)CC1 [Example 123, 2,5-Difluoro-N-(3-{6-methoxy-7-[3-(4-methyl-piperazin-1-yl)-propoxy]-quinolin-4-yloxy}-phenyl)-benzenesulfonamide] | 186 to 188 | 
COc1cc2c(Oc3ccc(NS(=O)(=O)c4ccccc4C(F)(F)F)c(F)c3)ccnc2cc1OCCCN1CCCC1 [Example 213, N-{2-Fluoro-4-[6-methoxy-7-(3-pyrrolidin-1-yl-propoxy)-quinolin-4-yloxy]-phenyl}-2-trifluoromethyl-benzenesulfonamide] | 152 to 156 | 
COc1cc2c(Oc3ccc(NS(=O)(=O)c4ccccc4C(F)(F)F)cc3F)ccnc2cc1OCCCCN1CCOCC1 [Example 214, N-{3-Fluoro-4-[6-methoxy-7-(4-morpholin-4-yl-butoxy)-quinolin-4-yloxy]-phenyl}-2-trifluoromethyl-benzenesulfonamide] | 102 to 104 | 
COc1cc2c(Oc3ccc(NS(=O)(=O)c4ccccc4C(F)(F)F)c(F)c3)ccnc2cc1OCCCN1CCCC(C)C1 (centres unmarked) [Example 215, N-(2-Fluoro-4-{6-methoxy-7-[3-(3-methyl-piperidin-1-yl)-propoxy]-quinolin-4-yloxy}-phenyl)-2-trifluoromethyl-benzenesulfonamide] | 125 to 126 | 
